Results taken from patent publication US9115061B2, “Naphthalene-based inhibitors of anti-apoptotic proteins” (BURNHAM INSTITUTE FOR MEDICAL RESEARCH, priority 2007, dated 2015).

How the values were obtained:
[1] = tested on: DOHH2 cell line; experiment: Apoptosis induction in NHL B-cell lines, Annexin V-FITC/PI; format: cell-based; settings: 48 hours; read-out: IC50, % viability DOHH2
Description: (§1) After 48 hours of incubation, % viability was determined by FACSort after staining cells by the use of an Annexin V-FITC/PI Apoptosis Detection kit (BioVision Inc.). Viable cells were defined by Annexin V-negative, PI-negative cells.

[2] = tested on: RS11846 cell line; experiment: as above; format: cell-based; settings: 48 hours; read-out: IC50, % viability RS11846
Description: as §1

[3] = tested on: 380 cell line; experiment: as above; format: cell-based; settings: 48 hours, relative to DOHH2 and RS11846
Description: as §1

[4] = tested on: MCF7 cells; experiment: XTT dye reduction assay; format: cell-based, human; settings: three days, read-out: IC50, cell viability MCF7
Description: (§2) The effects of the compounds on viability of tumor cells in culture were monitored by using XTT assays with MCF7 and ZR75-1 cell lines. MCF7 cells were grown in DMEM containing 10% fetal bovine serum, penicillin/streptomycin, supplemented with 10^−10 M insulin, 1 mM sodium pyruvate and glutamine. ZR75-1 cells were grown in RPMI containing 10% fetal bovine serum, penicillin/streptomycin, supplemented with HEPES buffer, 1 mM sodium pyruvate and glutamine. Cells were regularly tested for mycoplasma contamination. Cells were seeded triplicates at an initial cell density of 1,000 cells per well. Blank wells received no cells.
(§3) Relative numbers of viable cells was determined by XTT assay. Briefly, in a 96-well plate, we added 50 μl of a mixture of 1 mg/ml of XTT (2,3-bis(2-methoxy-4-nitro-5-sulfophenyl)-5-[(phenylamino)carbonyl]-2H-tetrazolium hydroxide) (Polysciences, Washington, Pa.) containing 0.025 mM PMS (phenazine methosulfate) to each well. The 96-well plates were reincubated for an additional 4 hours to allow for XTT formazan production. Then, the contents of each plate were mixed and optical densities were determined at a wavelength of 450 nm (OD450). Net OD450 was determined after subtracting OD450 of blank wells. Low-passage HeLa cells (between passage number 10 and 20) were transfected with pcDNA3-BCL-XL or control pcDNA3 plasmids using Lipofectamine Plus reagent (Invitrogen) and selected in medium containing 800 μg/ml of G418. Immunoblot analysis of BCL-XL was accomplished as previously described.

[5] = tested on: ZR75-1 cells; experiment: XTT dye reduction assay; format: cell-based, human; settings: three days, read-out: IC50, cell viability ZR75-1
Description: as §2, §3

[6] = tested on: Balb/c mice; experiment: Oral toxicity study in normal Balb/c mice; format: in vivo, mouse; settings: […] oral, three weeks
Description: Compounds or vehicle control were dosed 15 times over 3 weeks, giving compounds daily for 5 consecutive days (Monday-Friday), resting on weekends.
Both compounds were provided by NCI-DTP (RAID-program). Compounds were dissolved in 100% sesame oil just before oral administration. Vehicle-control consisted of corresponding concentration of ascorbic acid suspended in 100% sesame oil.
Spleens were removed and weighed.
Whole blood (250 μl) was collected in EDTA-coated glass tubes (purple top; MICROTAINER Brand Tube with EDTA, Catalogue #365973, Becton, Dickinson and Company, New Jersey 07417-1885) via either cardiac puncture or severing the brachial artery of anesthetized mice. After thorough mixing, specimens were analyzed using a VetScan HM2 (Abaxis Inc., Union City, Calif. 94587) hematology analyzer, measuring white blood cell count (WBC), red blood cell count (RBC), platelet (PLT) count, leukocyte differential (including % lymphocyte, % monocyte and % granulocyte), hematocrit (Ht), and hemoglobin (Hb).
(Eppendorf Centrifuge 5415C) for 2 minutes to separate serum from cells and fibrin clot. The resulting serum specimens were analyzed using an automated blood chemistry analyzer (“COBAS MIRA Classic”; Roche, Indianapolis, Ind. 46250-0414) to measure alanine aminotransferase (ALT) and aspartate aminotransferase AST), blood urea nitrogen (BUN), and […].
Stomach and intestines were examined also imaged by ultrasound for evidence of dilation, an indication of GI toxicity. Briefly, mice were anesthetized using a mixture of isofluorane (5%) and oxygen gas (95%), restrained on a heated table using Aquagel Lubrication Gel (Parker Laboratories, Inc., Fairfield, N.J. 07004), and abdominal hair was removed with a chemical depilation agent (Nair™ Hair Removal, Church & Dwight Co., Inc., Princeton, N.J. 08543). Aquasonic 100 Ultrasound Transmission Gel (Parker Laboratories, Inc., Fairfield, N.J. 07004) was applied to the abdomen prior to imaging using a high-frequency probe to assess gas and intestinal distention.
Immediately after ultrasound imaging, electrocardiogram (ECG) analysis of anesthetized mice was performed using a MP150 Biopack System.

[7] = tested on: murine B-cells from BCL-2 transgenic mice; experiment: Viability of cultured splenocytes, Annexin V-FITC/PI; format: cell-based; settings: 18 hours; read-out: IC50, induction of apoptosis in cultured B-cells of BCL-2 transgenic mouse
Description: Spleens were excised from sacrificed mice and cell suspensions treated with a mouse erythrocyte lysing kit (R & D Systems). Total splenocyte count was determined by typan blue dye exclusion assays using hemocytometers. The percentage of B-lymphocytes was determined by fluorescence activated cell sorter (FACS) analysis SACS-CANTO, Bectin-Dickinson Inc., Mountain View, Calif.) following staining cells with Phyco-Erytrin (PE)-conjugated anti-CD19 or -B220 antibodies (Becton Dickinson, San Jose, Calif. 95131).
After 18 hours of incubation, % viability of splenocytes was determined by FACSort after staining cells by the use of an Annexin V-FITC/PI Apoptosis Detection kit (BioVision Inc.). Viable cells were defined by Annexin V-negative, PI-negative cells.

[8] = tested on: RS11846 cell line; experiment: Apoptosis, Annexin V and propidium iodide assay; format: cell-based, human; settings: 1-2 days; read-out: RS11846 EC50 (Annexin V- and propidium iodide assay)
Description: The apoptotic activity of the compounds against RS11846 cells was assessed by staining with Annexin V- and propidium iodide (PI). Lymphoma cell line, RS11846, was cultured in RPMI 1640 medium (Mediatech Inc., Herndon, Va. 20171) containing 10% fetal bovine serum (Mediatech Inc., Herndon, Va. 20171) and Penicillin/Streptomycin (Mediatech Inc., Herndon, Va. 20171). […] The percentage of viable cells was determined by FITC-Annexin V- and propidium iodide (PI)-labeling, using an Apoptosis Detection kit (BioVision Inc.), and analyzing stained cells by flow cytometry (FACSort; Bectin-Dickinson, Inc.; Mountain View, Calif.). Cells that were annexin-V-negative and PI-negative were considered viable.

[9] = orally 0.06 mmol/kg daily for up to 21 days; cited from earlier work
[10] = target: BCL-XL (Homo sapiens (Human), UniProt Q07817); experiment: 1D 1H-NMR binding assay; settings: 4-point-rating scale; compounds 200 μM, BCL-XL 25 μM; also: key: +++: Very Active; ++: Active; +: Mild; −: Weak
Description: By observing the aliphatic region of the spectra, binding could be readily detected due to chemical shift changes in active site methyl groups of Ile, Leu, Thr, Val or Ala (region between −0.8 and 0.3 ppm). All experiments were performed with a 600 MHz spectrometer Bruker Avance 600 equipped with four rf channels and z-axis pulse-field gradients.

BCL-XL, sequence (Q07817 whole entry): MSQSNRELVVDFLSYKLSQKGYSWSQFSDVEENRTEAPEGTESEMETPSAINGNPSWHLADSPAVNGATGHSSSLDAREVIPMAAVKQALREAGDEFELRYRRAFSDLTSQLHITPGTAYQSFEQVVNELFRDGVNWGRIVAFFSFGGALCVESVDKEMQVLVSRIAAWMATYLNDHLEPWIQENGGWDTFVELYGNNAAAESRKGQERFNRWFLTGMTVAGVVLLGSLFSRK

In the case of Cc1cc2c(C(C)C)c(O)c(O)c(C=O)c2c(O)c1-c1c(C)cc2c(C(C)C)c(O)c(O)c(C=O)c2c1O [Gossypol, gossypol], the IC50 [1] is reported as roughly 3 µM, the IC50 [2] is reported as roughly 3 µM and the “sensitivity of 380 cell line” value [3] is reported as “slightly more resistant”. For the same compound, the IC50 [4] was 13.2 µM, the IC50 [5] was 8.4 µM and the “general condition of mice” value [6] was “lethagic with scruffy hair”. For the same compound, the IC50 [7] was roughly 10 µM, the EC50 [8] was 4.23 µM and the anti-tumor activity [9] was “show anti-tumor activity”. The lethality [9] was “non-lethal” and the “1D 1H-NMR Binding Assay (BCL-XL)” value [10] was “++”.
